# Assay results published in ChEMBL document CHEMBL5505949, “Synthesis and clinical application of small-molecule inhibitors of Janus kinase” (Eur J Med Chem, 2023).
# Tests used:
# [1] = molecular target: T1, Tyrosine-protein kinase JAK2 (Homo sapiens, UniProt O60674); assay: Inhibition of wild type JAK2 (unknown origin)
# [2] = molecular target: T1, Tyrosine-protein kinase JAK2; assay: Inhibition of JAK2 (unknown origin)
# [3] = molecular target: Tyrosine-protein kinase JAK2 (Homo sapiens, UniProt O60674, V617F); assay: Inhibition of JAK2 V617F mutant (unknown origin)
# [4] = molecular target: T2, Tyrosine-protein kinase JAK3 (Homo sapiens, UniProt P52333); assay: Inhibition of JAK3 (unknown origin)
# T2 sequence (P52333 whole entry): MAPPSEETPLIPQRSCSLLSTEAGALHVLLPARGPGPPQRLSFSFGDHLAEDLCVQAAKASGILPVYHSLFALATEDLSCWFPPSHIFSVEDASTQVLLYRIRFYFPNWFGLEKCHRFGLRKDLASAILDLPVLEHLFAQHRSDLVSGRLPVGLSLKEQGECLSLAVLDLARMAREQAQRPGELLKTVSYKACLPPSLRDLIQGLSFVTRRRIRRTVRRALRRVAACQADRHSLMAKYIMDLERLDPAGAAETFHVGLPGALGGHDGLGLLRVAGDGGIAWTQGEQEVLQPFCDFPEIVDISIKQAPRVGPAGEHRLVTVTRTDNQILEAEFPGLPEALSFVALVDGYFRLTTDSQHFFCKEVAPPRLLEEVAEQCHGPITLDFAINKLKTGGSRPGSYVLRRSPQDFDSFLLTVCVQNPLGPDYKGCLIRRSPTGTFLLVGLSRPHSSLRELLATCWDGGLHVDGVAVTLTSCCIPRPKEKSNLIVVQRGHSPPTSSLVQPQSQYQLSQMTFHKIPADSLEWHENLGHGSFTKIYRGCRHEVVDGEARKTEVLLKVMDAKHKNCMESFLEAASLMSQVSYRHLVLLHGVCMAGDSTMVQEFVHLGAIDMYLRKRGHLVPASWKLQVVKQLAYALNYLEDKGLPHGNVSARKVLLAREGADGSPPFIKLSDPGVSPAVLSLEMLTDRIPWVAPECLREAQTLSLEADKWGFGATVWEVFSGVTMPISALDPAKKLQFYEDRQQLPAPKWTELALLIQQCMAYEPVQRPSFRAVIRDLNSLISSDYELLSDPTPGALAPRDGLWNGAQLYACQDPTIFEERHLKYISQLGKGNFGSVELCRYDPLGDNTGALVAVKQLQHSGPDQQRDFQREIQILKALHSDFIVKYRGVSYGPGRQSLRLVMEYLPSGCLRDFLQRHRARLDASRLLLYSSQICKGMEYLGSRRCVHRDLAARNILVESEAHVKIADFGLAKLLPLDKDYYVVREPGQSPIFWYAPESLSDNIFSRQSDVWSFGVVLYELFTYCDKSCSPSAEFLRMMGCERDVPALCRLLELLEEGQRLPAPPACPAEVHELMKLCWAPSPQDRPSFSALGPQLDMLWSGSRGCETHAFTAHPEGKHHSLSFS
# T1 sequence (O60674 whole entry): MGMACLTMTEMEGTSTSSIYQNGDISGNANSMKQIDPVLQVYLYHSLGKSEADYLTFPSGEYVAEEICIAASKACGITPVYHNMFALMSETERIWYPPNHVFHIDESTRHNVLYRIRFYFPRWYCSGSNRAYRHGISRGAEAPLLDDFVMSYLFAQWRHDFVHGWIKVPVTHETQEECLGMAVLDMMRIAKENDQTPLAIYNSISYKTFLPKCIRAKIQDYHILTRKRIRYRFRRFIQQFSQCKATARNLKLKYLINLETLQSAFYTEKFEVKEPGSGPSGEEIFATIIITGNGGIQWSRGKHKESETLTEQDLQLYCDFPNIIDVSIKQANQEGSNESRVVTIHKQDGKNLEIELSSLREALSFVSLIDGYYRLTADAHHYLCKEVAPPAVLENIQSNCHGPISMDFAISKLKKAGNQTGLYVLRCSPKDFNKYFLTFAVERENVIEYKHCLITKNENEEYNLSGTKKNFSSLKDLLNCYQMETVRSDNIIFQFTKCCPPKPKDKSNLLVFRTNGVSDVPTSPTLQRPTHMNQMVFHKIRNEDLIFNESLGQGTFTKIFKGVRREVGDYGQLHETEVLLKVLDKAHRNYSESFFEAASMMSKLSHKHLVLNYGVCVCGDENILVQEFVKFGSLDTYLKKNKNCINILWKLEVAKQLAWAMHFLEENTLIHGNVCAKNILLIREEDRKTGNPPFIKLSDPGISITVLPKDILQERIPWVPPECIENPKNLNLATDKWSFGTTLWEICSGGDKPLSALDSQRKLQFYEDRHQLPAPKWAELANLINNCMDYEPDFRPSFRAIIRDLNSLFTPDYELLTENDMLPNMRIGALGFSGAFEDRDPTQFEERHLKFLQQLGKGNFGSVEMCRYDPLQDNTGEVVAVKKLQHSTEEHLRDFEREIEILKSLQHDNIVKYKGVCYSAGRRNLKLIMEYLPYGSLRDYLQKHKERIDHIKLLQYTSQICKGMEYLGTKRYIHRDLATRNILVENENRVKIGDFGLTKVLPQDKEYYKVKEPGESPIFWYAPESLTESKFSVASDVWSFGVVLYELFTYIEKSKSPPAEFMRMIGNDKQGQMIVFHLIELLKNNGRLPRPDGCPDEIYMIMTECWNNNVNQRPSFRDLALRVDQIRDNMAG
# Chain of Tyrosine-protein kinase JAK2 (Homo sapiens, UniProt O60674, V617F) (O60674 whole entry V617F): as the sequence (O60674 whole entry) above, with V617F counted along it
Compound,IC50 [1] [nM],IC50 [2] [nM],IC50 [3] [nM],IC50 [4] [nM]
Cc1cc(Nc2cc(CN3CCOCC3)c3nc(C)c(Cc4ccc(Cl)cc4F)n3n2)n[nH]1 [GANDOTINIB],2260,68,55,
COc1nn(C)cc1Nc1nccc(-c2c[nH]c3c(NC(=O)[C@@H](C)N4CCN(C)CC4)cccc23)n1 [GOLIDOCITINIB],,14700,,30000
